# ChEMBL document CHEMBL1201862, “PubChem BioAssay data set” (2004)
# Calls of active or inactive are those of the source.
# What was measured:
# [1] = target: T1, Histone-lysine N-methyltransferase NSD2 (Homo sapiens, UniProt O96028); type: biochemical
# T1 sequence (O96028 whole entry): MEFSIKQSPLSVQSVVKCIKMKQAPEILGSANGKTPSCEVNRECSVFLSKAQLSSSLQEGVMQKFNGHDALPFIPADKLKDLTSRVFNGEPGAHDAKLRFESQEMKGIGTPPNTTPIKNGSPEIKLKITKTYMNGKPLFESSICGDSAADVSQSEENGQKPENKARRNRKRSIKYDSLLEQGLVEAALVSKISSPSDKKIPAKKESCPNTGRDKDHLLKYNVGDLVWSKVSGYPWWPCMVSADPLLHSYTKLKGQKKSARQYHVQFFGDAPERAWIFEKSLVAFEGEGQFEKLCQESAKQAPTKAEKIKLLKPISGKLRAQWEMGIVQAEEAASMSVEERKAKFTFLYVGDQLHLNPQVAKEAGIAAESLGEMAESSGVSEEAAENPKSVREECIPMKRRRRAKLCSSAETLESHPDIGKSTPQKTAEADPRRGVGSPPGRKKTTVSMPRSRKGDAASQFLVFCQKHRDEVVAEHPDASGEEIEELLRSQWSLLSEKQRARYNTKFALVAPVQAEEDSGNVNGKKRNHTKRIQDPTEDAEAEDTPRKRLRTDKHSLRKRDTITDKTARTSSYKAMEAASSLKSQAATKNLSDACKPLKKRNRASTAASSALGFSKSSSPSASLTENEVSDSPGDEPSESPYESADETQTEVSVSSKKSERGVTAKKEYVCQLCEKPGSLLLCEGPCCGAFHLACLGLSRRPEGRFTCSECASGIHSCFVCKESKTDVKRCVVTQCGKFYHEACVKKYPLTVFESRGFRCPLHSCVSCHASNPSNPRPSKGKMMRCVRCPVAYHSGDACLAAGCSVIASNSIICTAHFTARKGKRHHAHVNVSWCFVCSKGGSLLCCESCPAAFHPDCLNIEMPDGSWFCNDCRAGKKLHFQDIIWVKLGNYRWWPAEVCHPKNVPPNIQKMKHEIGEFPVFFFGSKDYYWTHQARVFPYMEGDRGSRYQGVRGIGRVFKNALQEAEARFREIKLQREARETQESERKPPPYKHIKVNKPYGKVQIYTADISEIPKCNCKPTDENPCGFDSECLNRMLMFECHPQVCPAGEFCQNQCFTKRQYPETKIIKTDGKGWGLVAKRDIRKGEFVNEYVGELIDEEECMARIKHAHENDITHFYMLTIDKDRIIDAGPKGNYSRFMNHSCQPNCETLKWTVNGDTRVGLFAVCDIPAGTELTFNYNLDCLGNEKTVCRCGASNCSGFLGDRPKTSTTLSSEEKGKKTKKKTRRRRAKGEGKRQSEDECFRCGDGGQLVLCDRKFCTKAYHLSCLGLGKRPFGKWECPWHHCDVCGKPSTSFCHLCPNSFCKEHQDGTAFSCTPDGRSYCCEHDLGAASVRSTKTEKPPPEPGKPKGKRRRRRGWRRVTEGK
# [2] = target: T2, Replicative DNA helicase DnaB (Mycobacterium tuberculosis, UniProt P9WMR3); assay: DnaB intein splicing inhibitors, dose response, biochemical, cell-free fluorescence (AID 449749); type: functional
# T2 sequence (P9WMR3 whole entry): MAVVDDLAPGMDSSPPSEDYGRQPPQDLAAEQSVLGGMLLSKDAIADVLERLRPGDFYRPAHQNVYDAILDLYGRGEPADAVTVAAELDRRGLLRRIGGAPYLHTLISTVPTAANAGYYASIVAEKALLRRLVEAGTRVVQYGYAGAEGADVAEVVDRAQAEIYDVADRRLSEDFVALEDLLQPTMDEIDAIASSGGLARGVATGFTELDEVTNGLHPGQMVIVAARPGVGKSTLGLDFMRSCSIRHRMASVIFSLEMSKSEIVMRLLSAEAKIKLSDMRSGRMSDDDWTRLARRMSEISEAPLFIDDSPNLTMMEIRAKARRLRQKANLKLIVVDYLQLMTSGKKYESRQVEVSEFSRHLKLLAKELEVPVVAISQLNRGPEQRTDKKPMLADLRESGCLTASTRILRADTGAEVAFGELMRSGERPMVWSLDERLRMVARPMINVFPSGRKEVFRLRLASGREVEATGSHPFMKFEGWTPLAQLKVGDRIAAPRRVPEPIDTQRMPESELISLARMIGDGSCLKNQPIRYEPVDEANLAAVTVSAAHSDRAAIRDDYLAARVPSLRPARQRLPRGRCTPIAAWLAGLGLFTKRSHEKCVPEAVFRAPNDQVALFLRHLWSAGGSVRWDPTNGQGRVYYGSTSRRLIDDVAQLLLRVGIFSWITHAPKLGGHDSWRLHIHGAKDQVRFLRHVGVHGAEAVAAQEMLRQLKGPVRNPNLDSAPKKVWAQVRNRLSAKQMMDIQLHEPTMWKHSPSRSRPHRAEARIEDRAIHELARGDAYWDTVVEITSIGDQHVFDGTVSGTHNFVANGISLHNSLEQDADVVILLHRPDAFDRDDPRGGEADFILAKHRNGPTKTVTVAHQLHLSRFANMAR
# [3] = target: Genome polyprotein (dengue virus type 2, UniProt P29990); assay: flavivirus cap methylation enzyme inhibition – biochemical, confirmation dose response, primary screen (AID 588689); type: functional
# [4] = tested on: HEK293; assay: Fluorescence-based counterscreen for potentiators or agonists of NPY-Y2: cell-based high-throughput dose response assay to identify inhibitors of cyclic nucleotide gated ion channel (CNGC) activity. In this assay, the parental HEK293 cell line transfected with a cyclic-nucleotide gated ion channel (CNGC)-based cAMP sensor is used to measure inhibition of isoproterenol-induced CNGC activity by test compound.; type: functional; details: Homo sapiens;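 also: stimulus is 1 µM isoproterenol at EC100 plus PDE inhibitor Ro 20-1724 at 25 µM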
# [5] = reduction of Shn3 3'UTR-driven luciferase in osteoblasts – cell-based, Clone20 osteoblasts, firefly luciferase, cherry-picked, dose response (AID 624132); type: functional;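 also: firefly luciferase luminescence from reporter carrying the Shn3 3'UTR in osteoblasts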
# [6] = non-specific 3'UTR reporter inhibition in Clone20-Shn3RL – cell-based, Renilla luciferase, cherry-picked, counter-screen for Shn3 inhibitor project, dose response (AID 624133); type: functional
# [7] = Counterscreen for AddAB inhibitors: absorbance-based bacterial cell-based high throughput dose response assay for inhibitors of bacterial viability. [Related pubchem assays (depositor defined):AID435030, AID449728, AID449731, AID488942, AID488955, AID488956]; type: functional
# [8] = Trypanosoma cruzi growth suppression in host cells – NIH3T3 host cells, beta-gal luminescence, confirmation (AID 2044); type: functional, cell-based;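 also: intracellular parasites grown in NIH/3T3 mouse fibroblasts as host cells; luminescent beta-galactosidase reporter signal from transgenic T. cruzi replicating inside host cells; inhibitors lower the luminescence signal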
# [9] = viability loss in MITF-independent A375 cells – cell-based, CellTiter-Glo luminescence, dry powder, set 2, counter-screen for MITF inhibitor project, dose response (AID 624489); type: functional; details: A-375;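 also: actives are compounds lowering A375 viability meaning general cytotoxicity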
# [10] = target: Fatty acid synthase (Homo sapiens, UniProt P49327); assay: inhibition of human FAS-TE enzyme activity – biochemical, kinetic fluorescence intensity, dose response (AID 624326); type: functional;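 also: rate of fluorescence rise from hydrolysis of a fluorogenic O-methyl fluorescein ester substrate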
# Chain of Fatty acid synthase (P49327 whole entry): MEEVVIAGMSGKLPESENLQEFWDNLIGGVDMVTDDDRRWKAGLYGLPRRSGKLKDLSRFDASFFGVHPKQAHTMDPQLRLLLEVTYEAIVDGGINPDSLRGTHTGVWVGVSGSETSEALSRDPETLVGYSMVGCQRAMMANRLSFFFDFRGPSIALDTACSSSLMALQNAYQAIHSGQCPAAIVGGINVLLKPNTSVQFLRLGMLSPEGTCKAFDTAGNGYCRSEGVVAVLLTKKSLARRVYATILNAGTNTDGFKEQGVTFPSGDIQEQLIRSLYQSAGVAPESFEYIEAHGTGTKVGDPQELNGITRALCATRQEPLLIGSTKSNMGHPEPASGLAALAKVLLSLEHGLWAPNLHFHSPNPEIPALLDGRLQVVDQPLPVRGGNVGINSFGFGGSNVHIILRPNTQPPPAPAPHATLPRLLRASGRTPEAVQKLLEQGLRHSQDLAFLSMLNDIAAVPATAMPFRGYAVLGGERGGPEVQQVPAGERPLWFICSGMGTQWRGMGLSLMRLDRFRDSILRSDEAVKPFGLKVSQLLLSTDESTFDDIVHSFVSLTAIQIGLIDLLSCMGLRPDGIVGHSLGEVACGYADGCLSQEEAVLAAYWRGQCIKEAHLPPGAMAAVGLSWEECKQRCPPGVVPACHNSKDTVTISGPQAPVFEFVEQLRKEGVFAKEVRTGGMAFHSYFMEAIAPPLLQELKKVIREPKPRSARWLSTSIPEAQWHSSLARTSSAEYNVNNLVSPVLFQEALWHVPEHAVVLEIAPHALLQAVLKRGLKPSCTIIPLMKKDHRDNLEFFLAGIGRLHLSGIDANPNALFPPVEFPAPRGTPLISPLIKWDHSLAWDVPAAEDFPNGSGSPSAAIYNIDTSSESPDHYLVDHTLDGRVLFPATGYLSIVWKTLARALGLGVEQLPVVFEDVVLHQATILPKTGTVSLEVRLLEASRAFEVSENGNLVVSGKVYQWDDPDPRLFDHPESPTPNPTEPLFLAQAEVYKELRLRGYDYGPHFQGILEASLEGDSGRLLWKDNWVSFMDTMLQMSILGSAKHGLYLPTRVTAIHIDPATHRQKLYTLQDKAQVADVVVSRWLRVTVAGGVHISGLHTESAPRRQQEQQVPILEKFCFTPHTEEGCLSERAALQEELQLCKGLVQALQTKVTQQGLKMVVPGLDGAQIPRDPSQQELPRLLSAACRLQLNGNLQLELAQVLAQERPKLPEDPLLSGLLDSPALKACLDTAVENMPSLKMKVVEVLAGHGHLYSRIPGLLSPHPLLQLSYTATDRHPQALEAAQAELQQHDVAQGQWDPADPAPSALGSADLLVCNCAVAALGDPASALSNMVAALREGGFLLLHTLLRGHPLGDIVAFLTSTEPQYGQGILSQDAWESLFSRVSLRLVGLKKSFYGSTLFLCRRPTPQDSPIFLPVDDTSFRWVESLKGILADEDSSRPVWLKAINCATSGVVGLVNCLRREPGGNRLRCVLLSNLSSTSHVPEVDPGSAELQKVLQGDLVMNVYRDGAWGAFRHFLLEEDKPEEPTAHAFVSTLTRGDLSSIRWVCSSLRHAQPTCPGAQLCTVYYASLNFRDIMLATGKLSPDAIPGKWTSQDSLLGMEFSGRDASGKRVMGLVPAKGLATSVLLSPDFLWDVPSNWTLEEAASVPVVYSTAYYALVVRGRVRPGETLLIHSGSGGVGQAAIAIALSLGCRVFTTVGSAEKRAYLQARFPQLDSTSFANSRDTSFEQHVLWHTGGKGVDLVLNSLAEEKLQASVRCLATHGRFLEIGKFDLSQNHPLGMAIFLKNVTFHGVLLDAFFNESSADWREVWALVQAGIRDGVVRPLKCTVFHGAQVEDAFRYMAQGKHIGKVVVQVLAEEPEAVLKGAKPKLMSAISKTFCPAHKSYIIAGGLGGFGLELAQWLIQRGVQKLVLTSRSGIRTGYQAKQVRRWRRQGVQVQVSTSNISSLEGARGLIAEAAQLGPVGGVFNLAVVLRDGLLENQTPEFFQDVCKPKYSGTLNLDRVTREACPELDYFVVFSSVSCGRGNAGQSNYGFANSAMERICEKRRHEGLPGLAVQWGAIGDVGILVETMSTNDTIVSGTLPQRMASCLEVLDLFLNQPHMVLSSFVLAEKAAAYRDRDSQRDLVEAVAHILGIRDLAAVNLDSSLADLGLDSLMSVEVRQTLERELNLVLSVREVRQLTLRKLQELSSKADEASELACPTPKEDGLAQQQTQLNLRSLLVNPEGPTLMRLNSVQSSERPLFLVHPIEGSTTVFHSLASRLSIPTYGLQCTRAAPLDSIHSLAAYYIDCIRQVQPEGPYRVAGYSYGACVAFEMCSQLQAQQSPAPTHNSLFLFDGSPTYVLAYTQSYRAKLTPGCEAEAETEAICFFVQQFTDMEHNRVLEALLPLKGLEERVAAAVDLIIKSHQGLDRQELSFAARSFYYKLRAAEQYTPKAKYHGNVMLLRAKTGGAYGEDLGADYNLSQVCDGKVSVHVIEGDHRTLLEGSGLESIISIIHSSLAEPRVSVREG
# Chain of Genome polyprotein (P29990 2492-3391 limits assumed): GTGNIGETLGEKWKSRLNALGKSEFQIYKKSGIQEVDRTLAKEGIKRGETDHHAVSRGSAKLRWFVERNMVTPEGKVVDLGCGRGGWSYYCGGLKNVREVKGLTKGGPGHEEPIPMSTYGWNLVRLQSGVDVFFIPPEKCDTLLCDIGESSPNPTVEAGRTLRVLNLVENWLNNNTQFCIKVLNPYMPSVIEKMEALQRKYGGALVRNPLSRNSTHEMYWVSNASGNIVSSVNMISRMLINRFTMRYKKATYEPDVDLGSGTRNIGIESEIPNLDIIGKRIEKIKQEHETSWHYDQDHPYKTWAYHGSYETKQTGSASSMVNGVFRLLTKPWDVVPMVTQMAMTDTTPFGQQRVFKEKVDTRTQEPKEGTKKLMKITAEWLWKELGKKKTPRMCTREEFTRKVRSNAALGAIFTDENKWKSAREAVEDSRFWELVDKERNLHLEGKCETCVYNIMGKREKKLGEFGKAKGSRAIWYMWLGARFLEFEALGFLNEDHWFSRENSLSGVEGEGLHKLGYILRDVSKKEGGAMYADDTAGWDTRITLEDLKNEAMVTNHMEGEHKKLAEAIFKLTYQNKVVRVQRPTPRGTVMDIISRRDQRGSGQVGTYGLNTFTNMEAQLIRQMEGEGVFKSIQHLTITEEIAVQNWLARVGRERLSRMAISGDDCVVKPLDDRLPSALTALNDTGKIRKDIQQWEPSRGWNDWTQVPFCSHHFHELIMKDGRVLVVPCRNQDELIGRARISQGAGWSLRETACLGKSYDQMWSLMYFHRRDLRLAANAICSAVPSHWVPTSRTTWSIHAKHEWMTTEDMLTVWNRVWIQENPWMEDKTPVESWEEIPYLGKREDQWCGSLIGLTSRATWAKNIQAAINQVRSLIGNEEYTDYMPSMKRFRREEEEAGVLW
Structure (SMILES),AC50 [1],AC50 [2],IC50 [3],EC50 [4],AC50 [5],AC50 [6],IC50 [7],EC50 [8],AC50 [9],IC50 [10]
O=C(O)CSc1cc(NS(=O)(=O)c2ccc(Br)cc2)c2ccccc2c1O,1.65 µM (active),0.883 µM (active),7.66 µM (active),–,–,–,–,–,–,–
O=C(CC(O)(C(F)(F)F)C(F)(F)F)Nc1ccc(Cl)c(Cl)c1,–,–,–,> 35.4 µM (not active),4.97 µM (active),5.67 µM (active),39 µM (inactive),–,–,–
O=C(CNc1cccc2ccccc12)N/N=C/c1ccc([N+](=O)[O-])o1,–,–,–,–,–,–,> 118 µM (inactive),< 0.1 µM (active),> 70 µM (inactive),–
Cc1ccc(NC(=O)C2=C(c3ccccc3)S(=O)(=O)CCS2(=O)=O)cc1,–,2.18 µM (active),> 100 µM (active),–,0.558 µM (active),4.49 µM (active),–,1.97 µM (active),–,1.61 µM (active)
